# Legend:
# [1] = adult patients, therapeutic dose, systemic blood; no reference given; cited from earlier work
# [2] = tested on: human precision-cut liver slices (PCLS); test: Transcriptomics of human PCLS: differentially regulated genes; assay type: cell-based; conditions: fold change of 1.5 and adjusted p value 0.05, 24 h, 60 μM bile acid mix
# Description: (§1) Precision-cut liver slices of 5 mm diameter and 250 μm thickness were prepared (de Graaf et al. [2010]). At this thickness, full penetration of substrates has been shown. PCLS were made using the Krumdieck tissue slicer (Alabama R&D, Munford, AL, USA) in ice-cold Krebs buffer at pH 7.42, enriched with glucose to a final concentration of 25 mM, saturated with carbogen (95 % O2/5 % CO2). Immediately after the slices were made, they were placed in ice-cold University of Wisconsin organ preservation solution (UW, Dupont Critical Care, Waukegan, IL, USA) and stored on ice until the beginning of the experiment. Slices were pre-incubated individually in 12-well plates in 1.3 ml of Williams Medium E with glutamax-1 (Gibco, Invitrogen, Paisley, Scotland) supplemented with 25 mM D-glucose and 50 μg/ml gentamycin (Gibco, Invitrogen, Paisley, Scotland). In the incubator (Sanyo CO2/O2 Incubator, PANASONIC, Secaucus, NJ, USA), the plates were gently shaken (90 times/min) for 1 h under 80 % O2 and 5 % CO2 atmosphere at 37 °C. This pre-incubation allows the slices to restore their ATP levels. […] The plates were incubated under the same conditions for 24 h. All incubation conditions were carried out in triplicate. Each experiment was performed in slices of 6 different human livers (Table 1). Slices were harvested for ATP assay in 100 mM Tris buffer with 2 mM EDTA and for RNA isolation in RNAlater. The bile acid mix was added to the medium in order to create an environment similar to the physiological concentration in the portal vein. The composition of the serum bile acids was according to Scherer et al. ([2009]). Pilot experiments were performed to find out the non-toxic concentration of the bile acid mix.
# (§2) Maxwell® 16 LEV Total RNA purification kit (Promega, The Netherlands) with Maxwell® 16 LEV Instrument was used to isolate RNA from the samples. Immediately after isolation, the RNA quality was assessed by measuring the 260/280 and 260/230 ratios, and the concentration was measured with the ND-1000 spectrophotometer (Fisher Scientific, Landsmeer, The Netherlands). The quality (RIN value) and quantity of the RNA were determined by high-throughput Caliper GX LabChip RNA kit (Caliper).
# (§3) Ambion Illumina Total Prep RNA kit was used to transcribe 300 ng RNA to cRNA according to the manufacturer’s instructions. A total of 750 ng of cRNA was hybridized at 58 °C for 16 h to the Illumina HumanHT-12 v4 Expression BeadChips. BeadChips were scanned using Iscan software, and IDAT files were generated (Illumina, San Diego, CA, USA).
# (§4) GenomeStudio software (Illumina) was used to read the IDAT files and generate raw expression values. The ArrayAnalysis web service (www.arrayanalysis.org/) was used for further preprocessing the data, which uses lumi R package (Eijssen et al. [2013]). Raw gene expression data were background-corrected (bgAdjust), variance-stabilized (VST) and normalized by quantile normalization. After normalization, the data were corrected for batch differences owing to RNA isolation and hybridization using the ComBat method implemented in the swamp package in R (Lauss et al. [2013]). Differentially expressed genes in slices exposed to the cholestatic drugs in the presence of bile acids versus the slices exposed to vehicle (DMSO) in the presence of bile acids were identified using the unpaired moderated t test in the limma package (Ritchie et al. [2015]). Genes that are regulated with a criterion of fold change of 1.5 (≤ or ≥1.5), and FDR-corrected p value ≤0.05 (Benjamini and Hochberg method) were chosen for pathway analysis. To compare our data with the scarcely available human in vivo data, human in vivo late-stage cholestasis data were downloaded from the Gene Expression Omnibus database (GSE46960).
# [3] = tested on: Genes involved in unfolded protein response (UPR); test: Microarray gene expression in human PCLS exposed to cholestatic drugs: unfolded protein response genes; assay type: cell-based; conditions: 24 h, 60 μM bile acid mix
# Description: as §1, §2, §3, §4
# [4] = tested on: Genes involved in the FXR pathway; test: Microarray gene expression in human PCLS exposed to cholestatic drugs: FXR pathway genes; conditions: 24 h, 60 μM bile acid mix
# Description: as §1, §2, §3, §4
# [5] = C max in systemic blood of adult patients after a therapeutic dose; conditions: highest toxic concentration tested in human PCLS vs C max in adult patients
# [6] = tested on: Genes involved in hepatic cholestasis pathway; test: Microarray gene expression in human PCLS exposed to cholestatic drugs: hepatic cholestasis pathway genes; conditions: 24 h, 60 μM bile acid mix
# Description: as §1, §2, §3, §4
compound,measurement,setting,value
"C#C[C@]1(O)CC[C@H]2[C@@H]3CCc4cc(O)ccc4[C@H]3CC[C@@]21C [EE, ethinyl estradiol]",Cmax,[1],0.0082 µM
same,Number of regulated genes,[2]; 25 μM,0
same,Number of regulated genes,[2]; 50 μM,5
same,Number of regulated genes,[2]; 75 μM,63
"CN(C)CCCN1c2ccccc2Sc2ccc(Cl)cc21 [CP, chlorpromazine]",ATF4 fold change,[3]; 30 μM,1.5
same,DDIT3 (CHOP) fold change,[3]; 30 μM,1.2
same,DNAJB9 fold change,[3]; 30 μM,1.0
same,ERN1 fold change,[3]; 30 μM,1.0
same,HSPA9 fold change,[3]; 30 μM,1.1
same,HSPH1 fold change,[3]; 30 μM,1.0
same,INSIG1 fold change,[3]; 30 μM,1.3
same,NFE2L2 fold change,[3]; 30 μM,1.1
same,SYVN1 fold change,[3]; 30 μM,1.0
same,ABCB4 fold change,[4]; 30 μM,−2.0
same,ABCB11 fold change,[4]; 30 μM,−1.7
same,ABCG5 fold change,[4]; 30 μM,−1.4
same,ABCG8 fold change,[4]; 30 μM,−1.7
same,APOC2 fold change,[4]; 30 μM,−1.4
same,APOC4 fold change,[4]; 30 μM,−1.8
same,APOF fold change,[4]; 30 μM,−1.9
same,BAAT fold change,[4]; 30 μM,−1.5
same,C3 fold change,[4]; 30 μM,−1.5
same,CYP8B1 fold change,[4]; 30 μM,−2.3
same,CYP27A1 fold change,[4]; 30 μM,−1.1
same,FASN fold change,[4]; 30 μM,−1.4
same,FBP1 fold change,[4]; 30 μM,−2.0
same,FETUB fold change,[4]; 30 μM,−1.8
same,FGA fold change,[4]; 30 μM,−1.7
same,ITIH4 fold change,[4]; 30 μM,−1.4
same,KNG1 fold change,[4]; 30 μM,−1.8
same,NR0B2 (SHP) fold change,[4]; 30 μM,−1.3
same,NR1H3 (LXR) fold change,[4]; 30 μM,−1.3
same,NR1H4 (FXR) fold change,[4]; 30 μM,−1.4
same,PON1 fold change,[4]; 30 μM,−1.9
same,RXRA fold change,[4]; 30 μM,−1.1
same,SCARB1 fold change,[4]; 30 μM,−1.6
same,SDC1 fold change,[4]; 30 μM,−1.4
same,SERPINF2 fold change,[4]; 30 μM,−1.5
same,SLC22A7 fold change,[4]; 30 μM,−2.6
same,SLC51B fold change,[4]; 30 μM,−1.9
same,SULT2A1 fold change,[4]; 30 μM,−1.9
same,Cmax,[1],0.42 µM
same,toxic concentration used in PCLS study relative to C max,[5],~ 70 × C max
same,ABCB4 fold change,[6]; 30 μM,−2.0
same,ABCB11 fold change,[6]; 30 μM,−1.4
same,ABCC3 fold change,[6]; 30 μM,−1.1
same,ABCG5 fold change,[6]; 30 μM,−1.4
same,ABCG8 fold change,[6]; 30 μM,−1.7
same,CYP8B1 fold change,[6]; 30 μM,−2.3
same,CYP27A1 fold change,[6]; 30 μM,−1.3
same,GCGR fold change,[6]; 30 μM,−1.7
same,IL1B fold change,[6]; 30 μM,−1.1
same,IL1RL1 fold change,[6]; 30 μM,1.4
same,IL1RN fold change,[6]; 30 μM,1.3
same,IRAK2 fold change,[6]; 30 μM,1.2
same,JUN fold change,[6]; 30 μM,1.5
same,NR0B2 fold change,[6]; 30 μM,−1.6
same,NR1H3 fold change,[6]; 30 μM,−1.2
same,NR1H4 fold change,[6]; 30 μM,−1.2
same,PPRC1 fold change,[6]; 30 μM,1.2
same,RXRA fold change,[6]; 30 μM,−1.3
same,SLC22A7 fold change,[6]; 30 μM,−2.6
same,TNFRSF1B fold change,[6]; 30 μM,1.0
same,Number of regulated genes,[2]; 10 μM,1
same,Number of regulated genes,[2]; 20 μM,2
same,Number of regulated genes,[2]; 30 μM,61
"S=C=Nc1cccc2ccccc12 [AN, Alpha-naphthylisothiocyanate]",ATF4 fold change,[3]; 75 μM,2.3
same,DDIT3 (CHOP) fold change,[3]; 75 μM,2.9
same,DNAJB9 fold change,[3]; 75 μM,2.7
same,ERN1 fold change,[3]; 75 μM,1.5
same,HSPA9 fold change,[3]; 75 μM,1.9
same,HSPH1 fold change,[3]; 75 μM,2.0
same,INSIG1 fold change,[3]; 75 μM,−2.5
same,NFE2L2 fold change,[3]; 75 μM,1.5
same,SYVN1 fold change,[3]; 75 μM,1.5
same,ABCB4 fold change,[4]; 75 μM,−2.1
same,ABCB11 fold change,[4]; 75 μM,−1.8
same,ABCG5 fold change,[4]; 75 μM,−1.5
same,ABCG8 fold change,[4]; 75 μM,−2.3
same,APOC2 fold change,[4]; 75 μM,−1.8
same,APOC4 fold change,[4]; 75 μM,−1.8
same,APOF fold change,[4]; 75 μM,−1.9
same,BAAT fold change,[4]; 75 μM,−1.8
same,C3 fold change,[4]; 75 μM,−1.7
same,CYP8B1 fold change,[4]; 75 μM,−3.5
same,CYP27A1 fold change,[4]; 75 μM,−1.3
same,FASN fold change,[4]; 75 μM,−1.9
same,FBP1 fold change,[4]; 75 μM,−1.8
same,FETUB fold change,[4]; 75 μM,−2.0
same,FGA fold change,[4]; 75 μM,−2.1
same,ITIH4 fold change,[4]; 75 μM,−1.9
same,KNG1 fold change,[4]; 75 μM,−2.3
same,NR0B2 (SHP) fold change,[4]; 75 μM,−1.8
same,NR1H3 (LXR) fold change,[4]; 75 μM,−1.8
same,NR1H4 (FXR) fold change,[4]; 75 μM,−1.8
same,PON1 fold change,[4]; 75 μM,−2.0
same,RXRA fold change,[4]; 75 μM,−1.5
same,SCARB1 fold change,[4]; 75 μM,−2.2
same,SDC1 fold change,[4]; 75 μM,−2.0
same,SERPINF2 fold change,[4]; 75 μM,−1.8
same,SLC22A7 fold change,[4]; 75 μM,−2.9
same,SLC51B fold change,[4]; 75 μM,−1.9
same,SULT2A1 fold change,[4]; 75 μM,−2.1
same,ABCB4 fold change,[6]; 75 μM,−2.1
same,ABCB11 fold change,[6]; 75 μM,−1.3
same,ABCC3 fold change,[6]; 75 μM,−1.2
same,ABCG5 fold change,[6]; 75 μM,−1.6
same,ABCG8 fold change,[6]; 75 μM,−2.3
same,CYP8B1 fold change,[6]; 75 μM,−3.4
same,CYP27A1 fold change,[6]; 75 μM,−1.4
same,GCGR fold change,[6]; 75 μM,−1.9
same,IL1B fold change,[6]; 75 μM,−1.2
same,IL1RL1 fold change,[6]; 75 μM,2.3
same,IL1RN fold change,[6]; 75 μM,1.1
same,IRAK2 fold change,[6]; 75 μM,1.6
same,JUN fold change,[6]; 75 μM,1.3
same,NR0B2 fold change,[6]; 75 μM,−1.2
same,NR1H3 fold change,[6]; 75 μM,−1.1
same,NR1H4 fold change,[6]; 75 μM,−1.1
same,PPRC1 fold change,[6]; 75 μM,1.6
same,RXRA fold change,[6]; 75 μM,−1.6
same,SLC22A7 fold change,[6]; 75 μM,−2.9
same,TNFRSF1B fold change,[6]; 75 μM,−1.5
same,Number of regulated genes,[2]; 25 μM,2
same,Number of regulated genes,[2]; 50 μM,183
same,Number of regulated genes,[2]; 75 μM,458
